{
  "source": "patent US20040029908A1",
  "about": "“Tricyclo compounds, a process for their production and a pharmaceutical composition containing the same” (FUJISAWA PHARMACEUTICAL CO., LTD., priority 1984, published 2004)",
  "key": {"[1]": {"test": "Solubility (physical and chemical properties)", "type": "physicochemical"}, "[2]": {"system": "mouse MLR (C57BL/6 responder cells, mitomycin C treated BALB/C stimulator cells)", "test": "Suppression of in vitro Mixed Lymphocyte Reaction (MLR), 3H-thymidine uptake", "type": "cell-based", "conditions": "for IC50: Lymphocyte, mouse MLR, 68 hours, 3H-thymidine", "description": "The MLR test was performed in microtiter plates, with each well containing 5 ×10^5 C57BL/6 responder cells (H-2^b ), 5 ×10^5 mitomycin C treated (25μg/ml mitomycin C at 37° C. for 30 minutes and washed three times with RPMI 1640 medium) BALB/C stimulator cells (H-2^d) in 0.2 ml RPMI 1640 medium supplemented with 10% fetal calf serum, 2mM sodium hydrogen carbonate, penicillin (50 unit/ml) and streptomycin (50 μg/ml) . The cells were incubated at 37 ° C. in humidified atmosphere of 5% carbon dioxide and 95% of air for 68 hours and pulsed with ^3H-thymidine (0.5 μCi) 4 hours before the cells were collected. The object compound of this invention was dissolved in ethanol and further diluted in RPMI 1640 medium and added to the cultures to give final concentrations of 0.1 μg/ml or less."}, "Fusarium oxysporum": {"system": "Fusarium oxysporum", "test": "Antimicrobial activity, serial agar dilution method in Sabouraud agar", "type": "cell-based", "conditions": "30° C., 24 hours", "description": "(§1) Antimicrobial activities of the tricyclo compounds (I) against various fungi were determined by a serial agar dilution method in a Sabouraud agar. Minimum inhibitory concentrations (MIC) were expressed in terms of μg/ml after incubation at 30° C. for 24 hours."}, "[3]": {"system": "Aspergillus fumigatus IFO 5840", "test": "Antimicrobial activity, serial agar dilution method in Sabouraud agar", "type": "cell-based", "conditions": "IFO5840, 30° C., 24 hours", "description": "as §1"}, "ddY mice": {"system": "ddY mice", "test": "Acute toxicities in ddY mice by intraperitoneal injection", "type": "in vivo"}, "[4]": {"conditions": "hexane (n-hexane), petroleum ether"}, "[5]": {"conditions": "methanol, ethanol, acetone, ethyl acetate, chloroform, diethyl ether and benzene"}, "[6]": {"conditions": "ddY mice, intraperitoneal injection"}},
  "data": [
    {"smiles": "C=CC[C@@H]1/C=C(\\C)C[C@H](C)C[C@H](OC)[C@H]2O[C@@](O)(C(=O)C(=O)N3CCC[C@H]3C(=O)O[C@H](/C(C)=C/[C@@H]3CC[C@@H](O)[C@H](OC)C3)[C@H](C)[C@@H](O)CC1=O)[C@H](C)C[C@@H]2OC", "note": "[FR-900525]", "values": [
      {"measurement": "Solubility", "setting": "[1]; [4]", "value": "Sparingly Soluble"},
      {"measurement": "Solubility", "setting": "[1]; [5]", "value": "Soluble"},
      {"measurement": "Solubility", "setting": "[1]; water", "value": "Insoluble"},
      {"measurement": "Radioactivities (mean C.P.M. ± S.E.)", "setting": "[2]; 1.2 ng/ml", "value": "10103 ± 421", "unit": "C.P.M."},
      {"measurement": "Suppression (%)", "setting": "[2]; 1.2 ng/ml", "value": 35.8, "unit": "%"},
      {"measurement": "Radioactivities (mean C.P.M. ± S.E.)", "setting": "[2]; 2.5 ng/ml", "value": "3564 ± 512", "unit": "C.P.M."},
      {"measurement": "Suppression (%)", "setting": "[2]; 2.5 ng/ml", "value": 77.4, "unit": "%"},
      {"measurement": "Radioactivities (mean C.P.M. ± S.E.)", "setting": "[2]; 5 ng/ml", "value": "828 ± 369", "unit": "C.P.M."},
      {"measurement": "Suppression (%)", "setting": "[2]; 5 ng/ml", "value": 94.7, "unit": "%"},
      {"measurement": "Radioactivities (mean C.P.M. ± S.E.)", "setting": "[2]; 10 ng/ml", "value": "372 ± 32", "unit": "C.P.M."},
      {"measurement": "Suppression (%)", "setting": "[2]; 10 ng/ml", "value": 97.6, "unit": "%"},
      {"measurement": "Radioactivities (mean C.P.M. ± S.E.)", "setting": "[2]; 100 ng/ml", "value": "469 ± 56", "unit": "C.P.M."},
      {"measurement": "Suppression (%)", "setting": "[2]; 100 ng/ml", "value": 97.0, "unit": "%"},
      {"measurement": "IC50", "setting": "[2]", "value": 0.00155, "unit": "µg/mL"},
      {"measurement": "MIC", "setting": "Fusarium oxysporum", "value": 1, "unit": "µg/mL"},
      {"measurement": "MIC", "setting": "[3]", "value": 0.5, "unit": "µg/mL"},
      {"measurement": "the dead at dose of 100 mg/kg", "setting": "ddY mice; [6]", "value": "could not be observed"}
    ]},
    {"smiles": "CO[C@H]1C[C@@H](C)C/C(C)=C/[C@@H](C)C(=O)C[C@H](O)[C@@H](C)[C@@H](/C(C)=C/[C@@H]2CC[C@@H](O)[C@H](OC)C2)OC(=O)[C@@H]2CCCCN2C(=O)C(=O)[C@]2(O)O[C@H]1[C@@H](OC)C[C@H]2C", "note": "[FR-900523]", "values": [
      {"measurement": "Solubility", "setting": "[1]; [4]", "value": "Sparingly Soluble"},
      {"measurement": "Solubility", "setting": "[1]; [5]", "value": "Soluble"},
      {"measurement": "Solubility", "setting": "[1]; water", "value": "Insoluble"},
      {"measurement": "Radioactivities (mean C.P.M. ± S.E.)", "setting": "[2]; 0.25 ng/ml", "value": "17721 ± 1083", "unit": "C.P.M."},
      {"measurement": "Suppression (%)", "setting": "[2]; 0.25 ng/ml", "value": 23.3, "unit": "%"},
      {"measurement": "Radioactivities (mean C.P.M. ± S.E.)", "setting": "[2]; 0.500 ng/ml", "value": "11624 ± 395", "unit": "C.P.M."},
      {"measurement": "Suppression (%)", "setting": "[2]; 0.500 ng/ml", "value": 49.7, "unit": "%"},
      {"measurement": "Radioactivities (mean C.P.M. ± S.E.)", "setting": "[2]; 1 ng/ml", "value": "5600 ± 399", "unit": "C.P.M."},
      {"measurement": "Suppression (%)", "setting": "[2]; 1 ng/ml", "value": 75.8, "unit": "%"},
      {"measurement": "Radioactivities (mean C.P.M. ± S.E.)", "setting": "[2]; 10 ng/ml", "value": "156 ± 37", "unit": "C.P.M."},
      {"measurement": "Suppression (%)", "setting": "[2]; 10 ng/ml", "value": 99.3, "unit": "%"},
      {"measurement": "Radioactivities (mean C.P.M. ± S.E.)", "setting": "[2]; 100 ng/ml", "value": "25 ± 12", "unit": "C.P.M."},
      {"measurement": "Suppression (%)", "setting": "[2]; 100 ng/ml", "value": 99.9, "unit": "%"},
      {"measurement": "IC50", "setting": "[2]", "value": 0.0005, "unit": "µg/mL"},
      {"measurement": "MIC", "setting": "[3]", "value": 0.3, "unit": "µg/mL"},
      {"measurement": "the dead at dose of 100 mg/kg", "setting": "ddY mice; [6]", "value": "could not be observed"}
    ]},
    {"smiles": "CCC1/C=C(\\C)CC(C)CC(OC)C2OC(O)(C(=O)C(=O)N3CCCCC3C(=O)OC(/C(C)=C/C3CCC(O)C(OC)C3)C(C)C(O)CC1=O)C(C)CC2OC", "note": "(stereo not shown) [FR-900520, 17-Ethyl-1,14-dihydroxy-12-[2-(4-hydroxy-3-methoxycyclohexyl)-1-methylvinyl)-23,25-dimethoxy-13,19,21,27-tetramethyl-11,28-dioxa-4-azatricyclo-[^22.3.1.0^4,^9) octacos-18-ene-2,3,10,16-tetraone]", "values": [
      {"measurement": "Solubility", "setting": "[1]; [4]", "value": "Sparingly Soluble"},
      {"measurement": "Solubility", "setting": "[1]; [5]", "value": "Soluble"},
      {"measurement": "Solubility", "setting": "[1]; water", "value": "Insoluble"},
      {"measurement": "Radioactivities (mean C.P.M. ± S.E.)", "setting": "[2]; 0.25 ng/ml", "value": "14987 ± 1786", "unit": "C.P.M."},
      {"measurement": "Suppression (%)", "setting": "[2]; 0.25 ng/ml", "value": 35.1, "unit": "%"},
      {"measurement": "Radioactivities (mean C.P.M. ± S.E.)", "setting": "[2]; 0.500 ng/ml", "value": "9434 ± 1546", "unit": "C.P.M."},
      {"measurement": "Suppression (%)", "setting": "[2]; 0.500 ng/ml", "value": 59.2, "unit": "%"},
      {"measurement": "Radioactivities (mean C.P.M. ± S.E.)", "setting": "[2]; 1 ng/ml", "value": "2744 ± 527", "unit": "C.P.M."},
      {"measurement": "Suppression (%)", "setting": "[2]; 1 ng/ml", "value": 88.1, "unit": "%"},
      {"measurement": "Radioactivities (mean C.P.M. ± S.E.)", "setting": "[2]; 10 ng/ml", "value": "515 ± 55", "unit": "C.P.M."},
      {"measurement": "Suppression (%)", "setting": "[2]; 10 ng/ml", "value": 97.8, "unit": "%"},
      {"measurement": "Radioactivities (mean C.P.M. ± S.E.)", "setting": "[2]; 100 ng/ml", "value": "175 ± 16", "unit": "C.P.M."},
      {"measurement": "Suppression (%)", "setting": "[2]; 100 ng/ml", "value": 99.2, "unit": "%"},
      {"measurement": "IC50", "setting": "[2]", "value": 0.00038, "unit": "µg/mL"},
      {"measurement": "MIC", "setting": "[3]", "value": 0.1, "unit": "µg/mL"},
      {"measurement": "the dead at dose of 100 mg/kg", "setting": "ddY mice; mouse, in vivo, ip", "value": "could not be observed"}
    ]}
  ]
}
